The record followed here is article PMC6162302, “A modified serine cycle in Escherichia coli coverts methanol and CO2 to two-carbon compounds” (Nature Communications, 2018).

The target of the test is T1, Medh(CT4–1), variant of Mdh2 (Cupriavidus necator, UniProt F8GNE5).
T1 construct: engineered variant CT4-1 of Mdh2, N-terminal His-tag, expressed in E. coli BL21(DE3), His-Spin column purified
T1 sequence (F8GNE5 1-390): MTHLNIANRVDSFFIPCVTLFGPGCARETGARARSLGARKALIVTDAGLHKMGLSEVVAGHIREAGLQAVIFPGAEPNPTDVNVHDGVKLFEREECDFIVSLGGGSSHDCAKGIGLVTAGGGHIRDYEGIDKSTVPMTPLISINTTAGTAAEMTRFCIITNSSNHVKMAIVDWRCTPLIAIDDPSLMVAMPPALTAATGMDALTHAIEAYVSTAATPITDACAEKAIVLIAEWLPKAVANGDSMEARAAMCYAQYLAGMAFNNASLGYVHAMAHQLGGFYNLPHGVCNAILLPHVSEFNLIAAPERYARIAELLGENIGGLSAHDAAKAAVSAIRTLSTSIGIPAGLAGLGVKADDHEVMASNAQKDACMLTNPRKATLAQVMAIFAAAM
Description: NADH formation at […] nm. The conditions noted are these: 500 mM methanol, 5 mM MgCl2, 100 mM NaHCO3 pH 9.5, 37 °C. Format: biochemical.

For the compound `NC(=O)c1ccc[n+]([C@@H]2O[C@H](COP(=O)(O)OP(=O)(O)OC[C@H]3O[C@@H](n4cnc5c(N)ncnc54)[C@H](O)[C@@H]3O)[C@@H](O)[C@H]2O)c1` [NAD], the “NADH formation at 340 nm” value is reported as “oxidation of methanol to formaldehyde with the formation of NADH”.
